The structures appear in SMILES notation. Where two headings read alike, the source gives them in different places.

Assay [1] addresses T1, constitutive 20S proteasome (Bos taurus, UniProt Q2TBP0+Q32KL2+Q3MHN0).
T1 construct: isolated constitutive and immunoproteasomes purified from bovine brain and thymus, respectively; from tissue; host or cells: bovine brain
The assay can be described thus: In vitro activity assays on isolated constitutive 20S proteasome (fluorogenic peptides). The format is biochemical. To be noted: isolated 20S from bovine brain. How it is done: (§1) PVLs effects on the 20S constitutive and immunoproteasome peptidase activities were measured through in vitro assays performed with fluorogenic peptides as substrates. Isolation and purification of the 20S proteasome from bovine brain and thymus were performed as previously reported.^[ [23] ^] The incubation mixture contained the compound at concentrations ranging from 0.0 to 10 µM, 1 µg of the isolated 20S proteasome, the appropriate substrate (5 µM final concentration), and 50 mm Tris/HCl (pH 8.0), up to a final volume of 100 µL. Purified proteasomes were always preincubated with each compound at 37°C for 30 min before the fluorogenic peptide substrates were added to the reaction mixture. Final incubation was performed at 37°C, and after 60 min the fluorescence of the hydrolyzed 7‐amino‐4‐methyl‐coumarin (AMC) and 4‐aminobenzoic acid (pAB) was detected (AMC, λexc = 365 nm, λem = 449 nm; pAB, λexc = 304 nm, λem = 664 nm) on a SpectraMax Gemini XPS microplate reader.
(§2) PVLs were first tested on isolated constitutive and immunoproteasomes purified from bovine brain and thymus, respectively. The constitutive 20S proteasome is a barrel‐shaped complex of four stacked rings, made of seven α subunits in the two outer rings and seven β subunits in the two inner rings, the latter bearing the catalytically active sites in the β1, β2, and β5 subunits. Treatment with inflammatory cytokines induces the transcription of three additional active subunits, known as β1i, β2i, and β5i, that replace constitutive homologues during proteasome assembly.^[ [28] ^] Proteasome proteolytic activities depend on the hydroxyl group of the N‐terminal threonine (Thr‐1) residue, responsible for cleaving peptides through a nucleophilic attack.^[ [29] ^]

In assay [2] the test system is ubiquitin‐protein conjugates and p27. The assay can be described thus: Western blot of proteasome substrates (ubiquitin‐protein conjugates, p27). The class given is cell-based, human. As to the method:
(§3) Cell viability was evaluated with the 3‐(4,5‐dimethylthiazol‐2‐yl)‐2,5‐diphenyltetrazolium bromide assay (MTT).^[ [25] ^] Upon 6 h and 24 h treatment with increasing concentrations (0‐10 µM) of C1, C2, and C3 dissolved in DMSO, cells were washed in PBS, pH 7.5, and then MTT (final concentration 0.5 mg mL^−1) was added to the culture medium without FBS and incubated for 2 h at 37 °C. The medium was then removed and replaced with 100 µL of DMSO. The optical density was measured at 550 nm in a microtiter plate reader. At least six cultures were utilized for each time point. Neuroblastoma cells, control and transfected cells, were then treated with C1, C2, and C3 for 6 and 24 h at the concentrations 0–1–5 µM. Compounds were dissolved in DMSO and then added to cell culture media. Control cells were included in each time point. After removing the medium and washing with cold phosphate buffered saline (PBS), cells were harvested in 4 mL of PBS and centrifuged at 1600 × g for 5 min. The pellet was resuspended in lysis buffer (20 mM Tris, pH 7.4, 250 mM sucrose, 1 mM EDTA, and 5 mM β‐mercaptoethanol) and passed through a 29‐gauge needle at least ten times. Lysates were centrifuged at 12 000×g for 15 min and the supernatants were stored at ‐80°C until use. Protein concentration was determined by the method of Bradford using bovine serum albumin (BSA) as standard.^[ [26] ^]
(§4) Proteins were resolved on SDS–PAGE and electroblotted onto PVDF membranes. Membranes with transferred proteins were incubated with the primary monoclonal antibody and successively with the specific peroxidase conjugated secondary antibody. Monoclonal antibodies against Ub and p27 were obtained from Santa Cruz Biotechnology, Inc. (Heidelberg, Germany). SQSTM1/p62 (sequestosome 1, herein p62) mouse monoclonal antibody was from Sigma‐Aldrich S.r.L. (Milano, Italy) and the anti‐LC3B antibody was purchased from Cell Signaling Technology, Inc. The immunoblot detection was performed with ECL Western blotting detection reagents using a ChemiDoc MP system. Each gel was loaded with molecular weight markers in the range of 12 to 225 kDa (GE Healthcare). Glyceraldehyde‐3‐phosphate dehydrogenase (GAPDH) was utilized as a control for equal protein loading: membranes were stripped and re‐probed with anti‐GAPDH monoclonal antibody (Santa Cruz Biotechnology, Heidelberg, Germany). Stripping buffer contained 200 mM glycine, 0.1% SDS, and 1% Tween 20. Immunoblot images were quantified using ImageJ 1.52p software (NIH, USA).
For orientation: A western blot detects proteins with antibodies after separation by electrophoresis.

In the next assay the target is T2, Cathepsin B (Homo sapiens, UniProt P07858).
T2 construct: The mixture for cathepsin B, containing 1 µg of cell lysate; endogenous in cells; host or cells: SH-SY5Y (control, APPwt- and APPmut-transfected)
The assay can be described thus: Cathepsin B activity in cell lysates (Z‐Arg‐Arg‐AMC). The format is cell-based. To be noted: APPmut cells, 6 h treatment. As to the method:
as §3
Cathepsin B proteolytic activity was measured using the fluorogenic peptide Z‐Arg‐Arg‐AMC at a final concentration of 50 µM, as previously described.^[ [24] ^] The mixture for cathepsin B, containing 1 µg of cell lysate, was pre‐incubated in 100 mM phosphate buffer pH 6.0, 1 mM EDTA, and 2 mM dithiothreitol for 5 min at 30°C. Upon the addition of the substrate, the mixture was incubated for 15 min at 30°C. The fluorescent signal released by the hydrolyzed 7‐amino‐4‐methyl‐coumarin (AMC, λexc = 365 nm, λem = 449 nm) was detected on a SpectraMax Gemini XPS microplate reader.

A further assay deals with LC3II and p62. Nature of the assay: Western blot of autophagy markers (LC3II, p62). The class given is cell-based, human. To be noted: for levels of LC3II: 6 h. How it is done: as §3
as §4, with “Each gel was loaded with molecular weight markers in the range of 12 to 225 kDa (GE Healthcare). Glyceraldehyde‐3‐phosphate dehydrogenase (GAPDH) was utilized as a control for equal protein loading: membranes were stripped and re‐probed with anti‐GAPDH monoclonal antibody (Santa Cruz Biotechnology, Heidelberg, Germany). Stripping buffer contained 200 mM glycine, 0.1% SDS, and 1% Tween 20.” left out

The test system of the next assay is Aβ(1‐42). Nature of the assay: Quantification of Aβ(1‐42) by ELISA in medium and cellular extracts. The format is cell-based, human. To be noted: 24 h, 5 µM; for Aβ(1‐42) levels: APPwt cells. As to the method:
Levels of Aβ(1‐42) secreted into the medium and present in cellular extracts were determined after PVLs treatment using the Human Aβ42 solid‐phase sandwich ELISA Kit from Invitrogen, following the manufacturer's instructions. For Aβ quantification in cell medium, culture medium was collected after neuronal cells treatment, centrifuged at 300 × g for 10 min to remove non adherent cells and debris and then treated with protease inhibitors.

The next assay has as its target T3, 20S immunoproteasome (Bos taurus, UniProt Q3SZC2+Q3T0T1+Q3T112).
T3 construct: isolated constitutive and immunoproteasomes purified from bovine brain and thymus, respectively; from tissue; host or cells: bovine thymus
The assay can be described thus: In vitro activity assays on isolated immunoproteasome (fluorogenic peptides). The class given is biochemical. To be noted: isolated 20S from bovine thymus. As to the method:
as §1, §2

Where [3] appears, read: 30 min preincubation, 37°C, read-out: IC50 ChT‐L Constitutive proteasome.
[4] abbreviates: read-out: IC50 BrAAP Constitutive proteasome.
The mark [5] stands for this setting: read-out: IC50 PGPH Constitutive proteasome.
[6] abbreviates: read-out: IC50 T‐L Constitutive proteasome.
Where [7] appears, read: 6 h exposure, control and transfected SH‐SY5Y cells.
Setting [8] is: 24 h treatment, mainly in APPmut cells exposed to C1.
Setting [9] is: 30 min preincubation, 37°C, read-out: IC50 ChT‐L Immunoproteasome.
Setting [10] is: read-out: IC50 BrAAP Immunoproteasome.
The mark [11] stands for this setting: read-out: IC50 PGPH Immunoproteasome.
Setting [12] is: read-out: IC50 T‐L Immunoproteasome.

A word on the IC50: it is the midpoint of a concentration-inhibition curve. The inhibition is the change of the read-out against control, counted positive when it falls. Read a low inhibition as a response near the control. As to `O=C1CCC(Cc2ccc(O)cc2)O1` (stereo not shown) [Compound C1, 5‐(4ʹ‐hydroxyphenyl)‐γ‐valerolactone], the IC50 is 120 ± 12.1 nM in assay [1] (setting [3]); 243 ± 20.1 nM in assay [1] (setting [4]); 62.8 ± 58.7 nM in assay [1] (setting [5]); 13 ± 2.1 nM in assay [1] (setting [6]); 126 ± 11.3 nM at 20S immunoproteasome (setting [9]); 218 ± 19.6 nM at 20S immunoproteasome (setting [10]). The IC50 turned out to be 41.8 ± 3.8 nM on 20S immunoproteasome (setting [11]) and 227 ± 13.2 nM on 20S immunoproteasome (setting [12]). Moreover, the “levels of Ub‐conjugates and p27” value in assay [2] (setting [7]) is “no particular effect”; in assay [2] (setting [8]), “evident increase”. For the same compound, the inhibition at 5 µM at Cathepsin B is 20%. In addition, the “levels of LC3II” value in the assay on LC3II and p62 (APPmut cells) was “increased”. Also, the “Aβ(1‐42) levels” value in the assay with Aβ(1‐42) is “significantly reduced”.

On to `O=C1CCC(Cc2ccc(O)c(O)c2)O1` (stereo not shown) [Compound C2, 5‐(3ʹ,4ʹ‐dihydroxyphenyl)‐γ‐valerolactone], for which the IC50 stood at 16.2 ± 1.2 nM in assay [1] (setting [3]); 256 ± 14.4 nM in assay [1] (setting [4]); 85.8 ± 7.8 nM in assay [1] (setting [5]); 87.4 ± 7.9 nM in assay [1] (setting [6]); 238 ± 16.7 nM at 20S immunoproteasome (setting [9]); 61.3 ± 5.7 nM at 20S immunoproteasome (setting [10]). Also, the IC50 on 20S immunoproteasome (setting [11]) is 114 ± 19.7 nM; at 20S immunoproteasome (setting [12]), 334 ± 28.9 nM. The “levels of Ub‐conjugates and p27” value in assay [2] (setting [7]) was “no particular effect”; in assay [2] (setting [8]) it was “evident increase”. In addition, the inhibition at 5 µM at Cathepsin B stood at 20%. In addition, the “levels of LC3II” value with LC3II and p62 (APPwt cells) is on record as “increased”. Further, in the assay on Aβ(1‐42), the “Aβ(1‐42) levels” value was “did not induce any change”.

Turning to `O=C1CCC(Cc2ccc(OS(=O)(=O)O)c(O)c2)O1` (stereo not shown) [Compound C3, 5‐(3ʹ‐hydroxyphenyl)‐γ‐valerolactone‐4ʹ‐sulfate], the IC50 in assay [1] (setting [3]) stood at 109 ± 11 nM; in assay [1] (setting [4]) it was 302 ± 27.8 nM; in assay [1] (setting [5]), 104 ± 11 nM; in assay [1] (setting [6]) it was 56.8 ± 2.3 nM; at 20S immunoproteasome (setting [9]), 1450 ± 153 nM; at 20S immunoproteasome (setting [10]), 88.4 ± 7 nM. The results for the IC50 on 20S immunoproteasome (setting [11]) and on 20S immunoproteasome (setting [12]) were 72.7 ± 5.7 nM and 588 ± 47.6 nM, respectively. The “levels of Ub‐conjugates and p27” value in assay [2] (setting [7]) is “no particular effect”; in assay [2] (setting [8]), “evident increase”. On Cathepsin B, 5 µM produced 30% inhibition. Besides, in the assay with LC3II and p62 (APPwt cells, long‐term (24 h) exposure), the p62 degradation result is on record as “favored p62 degradation”. The “reduction of Aβ(1‐42) in cell extracts” value in the assay on Aβ(1‐42) (APPmut cells) was determined as 35%. For the same compound, in the assay on Aβ(1‐42) (APPmut cells), the “reduction of Aβ(1‐42) in cell medium” value was found to be 35%.

The values are drawn from PMC9285603, “Flavan‐3‐ol Microbial Metabolites Modulate Proteolysis in Neuronal Cells Reducing Amyloid‐beta (1‐42) Levels” (Molecular Nutrition & Food Research, 2021).
